In patent US20080108697A1, “Device for packaging an oxaliplatin solution” (priority 2001, published 2008):

What was measured:
[1] = Stability of aqueous oxaliplatin preparations in type I glass bottles under normal conditions (25° C., 60% relative humidity), total impurities by HPLC; format: physicochemical; details: for Level of impurity 5 years: 2 mg/ml, 50 ml bottle (ratio 0.12); for Level of impurity 5 years / Level of impurity 1 month / Level of impurity 2.5 months / Level of impurity 4 months / Level of impurity 5.5 months / Level of impurity 7 months / Level of impurity 10 months: 25° C./60% RH
Procedure: To carry out this trial, four series of bottles, consisting of a colorless type I glass, all of cylindrical shape but of different volumes, were used. Table 2 assembles, for each series of bottles, their so-called “useful” capacity, their so-called “brim” capacity, the inner diameter of these bottles, that of their neck and their height.
These bottles, used for the first time, were subjected beforehand to three cycles of washing and rinsing with hot water heated to about 50° C. and water of so-called PI grade before being dried.
Three oxaliplatin stock solutions at concentrations of 2 mg/ml, 5 mg/ml and 7 mg/ml, respectively, were prepared in the usual manner using PI grade water as solvent. No particular stabilizing agent was used.
Aliquots of these preparations were collected and then transferred under aseptic filling conditions into different bottles so as to reach the respective level corresponding to the heights indicated below. The bottles were then hermetically closed by seaming a cap.
For studies of stability under normal conditions, a first portion of these bottles were then placed in a first chamber thermostated at a temperature of 25° C. and at a relative humidity of 60%. These bottles were maintained upright and at rest without particular stirring for the periods indicated below.
Samples were collected at the periods indicated and then analyzed by high-performance liquid chromatography according to a conventional method in order to quantify the level of noncharacterized total impurities, expressed as a percentage by weight, relative to the quantities of oxaliplatin present in each of the samples.
This study was performed on groups of bottles having a useful capacity of 5 ml, 15 ml and 20 ml, respectively, filled as described above with aliquots of a stock solution at a concentration of 5 mg/ml, and then stored under the conditions mentioned above for a period of at least 10 months.
Samples were collected at periods of 1 month, and then 2.5 months, 4 months, 5.5 months, 7 months and 10 months, respectively, after bottling.
This study was performed as above, with the difference that the bottles were loaded with aliquots of a stock solution at a concentration of 7 mg/ml and samples were collected at the same periods.
This study was performed on three batches of bottles having the same useful capacity of 50 ml, filled as described above with aliquots of the same volume of a stock solution at a concentration of 2 mg/ml, and then stored under the conditions mentioned above for a period of 5 years. At the end of this period, samples were collected for analysis.

[2] = Stability study under accelerated conditions (40° C., 75% humidity); format: physicochemical; details: aqueous solution in the selected bottles and filling conditions, humidity 75%
Procedure: Finally, it will be noted that the applicant has carried out a study of stability under accelerated conditions intended to anticipate stabilities on a scale of 3 years. To this effect, bottles were placed in a chamber thermostated at a temperature of 40° C. and in an atmosphere having a humidity of 75%. Samples were regularly collected and then analyzed.

[3] = plastic material free of PVC in direct contact; period of at least one year; cited from earlier work
[4] = 5 mg/ml, 5 ml bottle (ratio 0.26)
[5] = 5 mg/ml, 15 ml bottle (ratio 0.20)
[6] = 5 mg/ml, 20 ml bottle (ratio 0.17)
[7] = deduced from curve of FIG. 1 (4 months), c=5 mg/ml
[8] = deduced from curve of FIG. 2 (4 months), printed c=5 mg/ml

## O=C1[O][Pt]2([NH][C@@H]3CCCC[C@H]3[NH]2)[O]C1=O [oxaliplatin, Oxaliplatin]
[1]; batch 1
  Level of impurity 5 years: 1.47 % by weight
[1]; batch 2
  Level of impurity 5 years: 1.56 % by weight
[1]; batch 3
  Level of impurity 5 years: 1.55 % by weight
[1]; 5 mg/ml aqueous solution, bottle useful capacity 5 ml (surface area/volume ratio 0.26)
  Level of impurity 1 month: 2.34 % by weight
[1]; [4]
  Level of impurity 2.5 months: 2.55 % by weight
  Level of impurity 4 months: 2.89 % by weight
  Level of impurity 5.5 months: 2.70 % by weight
  Level of impurity 7 months: 3.19 % by weight
  Level of impurity 10 months: 3.64 % by weight
[1]; [5]
  Level of impurity 1 month: 1.15 % by weight
  Level of impurity 2.5 months: 1.16 % by weight
  Level of impurity 4 months: 1.23 % by weight
  Level of impurity 5.5 months: 1.50 % by weight
  Level of impurity 7 months: 1.56 % by weight
  Level of impurity 10 months: 1.59 % by weight
[1]; [6]
  Level of impurity 1 month: 1.06 % by weight
  Level of impurity 2.5 months: 1.11 % by weight
  Level of impurity 4 months: 1.13 % by weight
  Level of impurity 5.5 months: 1.38 % by weight
  Level of impurity 7 months: 1.42 % by weight
  Level of impurity 10 months: 1.45 % by weight
[1]; 7 mg/ml, 5 ml bottle
  Level of impurity 1 month: 1.87 % by weight
  Level of impurity 2.5 months: 2.09 % by weight
  Level of impurity 4 months: 2.33 % by weight
  Level of impurity 5.5 months: 2.56 % by weight
  Level of impurity 7 months: 2.75 % by weight
  Level of impurity 10 months: 2.98 % by weight
[1]; 7 mg/ml, 15 ml bottle
  Level of impurity 1 month: 0.96 % by weight
  Level of impurity 2.5 months: 1.03 % by weight
  Level of impurity 4 months: 1.12 % by weight
  Level of impurity 5.5 months: 1.19 % by weight
  Level of impurity 7 months: 1.23 % by weight
  Level of impurity 10 months: 1.30 % by weight
[1]; 7 mg/ml, 20 ml bottle
  Level of impurity 1 month: 0.70 % by weight
  Level of impurity 2.5 months: 0.81 % by weight
  Level of impurity 4 months: 0.97 % by weight
  Level of impurity 5.5 months: 1.04 % by weight
  Level of impurity 7 months: 1.07 % by weight
  Level of impurity 10 months: 1.11 % by weight
[1]; [7]
  R0, theoretical maximum surface area/volume ratio for which no impurity would be quantifiable: 0.10
  constant A of R=R0+A.c.I: 0.01 ml/(mg.m)
[1]; [8]
  R0, theoretical maximum surface area/volume ratio for which no impurity would be quantifiable: 0.11
  constant A of R=R0+A.c.I: 0.009 ml/(mg.m)
[2]
  period of storage suggested by accelerated stability study: at least 36 months
[3]
  degradation on preservation in flexible bags for infusion: no degradation
